Experimental data reported in patent publication EP4696306A1, “ADENOSINE TRIPHOSPHATE SECRETION INHIBITOR, HEPATIC STELLATE CELL ACTIVATION INHIBITOR, HEPATIC STELLATE CELL DEACTIVATOR, HEPATIC FIBROSIS THERAPEUTIC AGENT, NON-ALCOHOLIC STEATOHEPATITIS THERAPEUTIC AGENT, PSORIASIS THERAPEUTIC AGENT, AND USE OF COMPOUND FOR PRODUCING ADENOSINE TRIPHOSPHATE …” (KURUME UNIVERSITY, priority 2023, dated 2024).

Test system: human epidermal keratinocytes
Assay: ATP secretion promoted by ionomycin in keratinocytes
Assay type: cell-based
Description: Human epidermal keratinocytes (Cryopreserved HEK, Lot 1758, Cell Applications Inc.) were cultured using an Epivita Keratinocyte Growth Medium Kit according to the manufacturer's instructions. The procedure was as follows. A supplement medium was added to a hydrocortisone-containing basal medium included in the medium preparation kit to prepare a complete medium. The medium in the dish was removed by aspiration. The cells were washed with 5 ml of BSS (Gbco), and then the BSS was removed by aspiration. After addition of 5 to 6 ml of trypsin/EDTA solution (Gbco), the dish was incubated at 37°C for 2 minutes. After addition of 5 ml of trypsin neutralization solution, the resulting cell suspension was transferred into two 15-ml Falcon tubes, and centrifuged at 200 × g for 5 minutes. The supernatant was removed by aspiration, and the pelleted cell cluster was suspended in 2 ml of the medium at 4.5 × 10^5 cells/ml. An aliquot of the resulting cell suspension was cryopreserved, while another aliquot was cultured and subjected to measurement.
ATP secretion by human epidermal keratinocytes (hereinafter referred to as "keratinocytes") was measured. Regarding control solutions, Krebs-Ringer HEPES supplemented with 0.2% BSA and 25 mM glucose (hereinafter also referred to as "Krebs/Iono(-)") was used as a negative control, and a solution prepared by adding 5 µM ionomycin to this solution (hereinafter also referred to as "Krebs/Iono(+)") was used as a positive control for ATP secretion. Ionomycin is a Ca^2+ ionophore. Addition of ionomycin to cells is known to promote influx of extracellular Ca^2+ into the cells to increase the intracellular Ca^2+ concentration, resulting in enhancement of ATP secretion. Test solutions were prepared by adding clodronate to Krebs/Iono(-) or Krebs/Iono(+) to a final concentration of 0.1 µM (hereinafter also referred to as "Clo/Iono(-)" or "Clo/Iono(+)", respectively) (N = 3).
Keratinocytes were cultured at 2.5 × 10^4 cells/well in a 24-well plate at 37°C in 5% CO2 for 4 days. The medium was removed by aspiration, replaced with Krebs/Iono(-) or Clo/Iono(-), and incubated at 37°C for 6 hours. These solutions were then removed by aspiration, and the content of each well incubated with Krebs/Iono(-) was replaced with 300 µl of a control solution (Krebs/Iono(-) or Krebs/Iono(+)), while the content of each well incubated with Clo/Iono(-) was replaced with 300 µl of a test solution (Clo/Iono(-) or Clo/Iono(+)). After further incubation at 37°C for 20 minutes, 200 µl of the supernatant was collected. The collected supernatant was immediately treated on a heat block at 95°C for 10 minutes, to inactivate ectonucleotidase. ATP in the supernatant was quantified using a Dojindo ATP assay kit - Luminescence (manufactured by Dojindo Laboratories).
After culturing keratinocytes, the medium was removed by aspiration, and replaced with Krebs/Iono(-), or Krebs/Iono(-) supplemented with 10 µM imeglimin, 0.1 µM EPA, 1 µM EPA, or 10 µM clodronate, followed by incubation for 6 hours. Subsequently, the solution was replaced with either a control solution (Krebs/Iono(-) or Krebs/Iono(+)) or a test solution (Krebs/Iono(+) supplemented with 10 µM imeglimin, 0.1 µM EPA, 1 µM EPA, or 10 µM clodronate), followed by incubation at 37°C for 20 minutes and then collection of 200 µl of the supernatant. The collected supernatant was immediately treated on a heat block at 95°C for 10 minutes to inactivate ectonucleotidase. ATP in the supernatant was quantified using a Dojindo ATP assay kit - Luminescence (manufactured by Dojindo Laboratories).
Keratinocytes were cultured in the same manner as in Example 1, and the medium was replaced with Krebs/Iono(-), Krebs/Iono(-) supplemented with 0.1 µM, 1 µM, or 10 µM imeglimin, or Krebs/Iono(-) supplemented with 0.1 µM, 1 µM, or 10 µM metformin, followed by incubation for 6 hours. […]

[1] = 10 µM, 6 hours incubation, then 20 minutes with ionomycin, N = 4

Row | SMILES | ATP secretion promoted by ionomycin (5 mM PEP, 20 minutes, N = 4) | ATP secretion promoted by ionomycin (10 mM PEP, 20 minutes, N = 4) | concentration exhibiting a relatively strong ATP secretion inhibitory effect (data not shown) | ATP secretion promoted by ionomycin (0.1 µM clodronate, 6 hours incubation, then 20 minutes with 5 µM ionomycin, N = 3) | ATP secretion promoted by ionomycin [1] | ATP secretion inhibitory effect, comparison and concentration dependence (0.1 µM, 1 µM, 10 µM, 6 hours incubation, N = 3) | ATP secretion inhibitory effect (0.1 µM, 6 hours incubation, N = 3) | time required for production of a strong inhibitory effect (1 µM imeglimin) | ATP secretion level relative to that obtained using the control solution (1 µM imeglimin, incubation time 2 hours, N = 3) | ATP secretion level relative to that obtained using the control solution (1 µM imeglimin, incubation time 6 hours, N = 3) | ATP secretion inhibitory effect compared with reference inhibitors (10 µM imeglimin versus 1 µM EPA and 10 µM clodronate)
1 | C=C(OP(=O)(O)O)C(=O)O [PEP, phosphoenolpyruvic acid] | inhibited | inhibited | not less than 3 mM |  |  |  |  |  |  |  | 
2 | O=P(O)(O)C(Cl)(Cl)P(=O)(O)O [clodronate] |  |  |  | inhibits the ATP secretion promoted by ionomycin | inhibited |  |  |  |  |  | 
3 | C[C@H]1N=C(N(C)C)N=C(N)N1 [imeglimin] |  |  |  |  | inhibited | slightly higher ATP secretion inhibitory effect than metformin | exhibit an ATP secretion inhibitory effect | about 6 hours | about 85% | about 40% | comparable to those of 1 µM EPA and 10 µM clodronate
